In patent US7129198B1, “Use of benzotriazole UV absorbers” (Ciba Specialty Chemicals Corporation, priority 1999, dated 2006) one finds MIC data, which are given here for one compound.

As a reminder, the MIC is the lowest concentration found to suppress growth.

SMILES strings stand for the structures.

Common to all, as to test: MIC in microtitre plates
Assay type in all cases: cell-based

The subject of assay [1] is Streptococcus mutans ATCC 25175. As to conditions: ATCC25175, 48 hours at 37° C., ≦20% growth. Here is the method:
(§1) Mycological slant agar for the preculture of moulds. The test substances are predissolved in dimethyl sulfoxide (DMSO) and tested in a dilution series of 1:2. The test organisms are cultured overnight in CASO bouillon and rinsed off with 10 ml of 0.85% sodium chloride solution (+0.1% TritonX-100). The test organisms are adjusted to an organism count of 1–5×10^6 CFU/ml with 0.85% sodium chloride solution. The test substances are prepipetted into microtitre plates in an amount of 8 μl per well. Previously diluted organism suspensions are diluted 1:100 in CASO bouillon and added to the test substances in an amount of 192 μl per well. The test batches are incubated for 48 hours at 37° C. After incubation, the growth is determined by reference to the turbidity of the test batches (optical density) at 620 nm in a microplate reader. The minimum inhibitory concentration (MIC value) is the concentration of substance at which (compared with the growth of the control) an appreciable inhibition of the growth (≦20% growth) of the test organisms is ascertained. One microtitre plate is used for each test organism and substance concentration. All substances are tested in duplicate.

The test system of assay [2] is Salmonella choleraesuis ATCC 9184. Conditions: Salmonella enterica, 48 hours at 37° C., ≦20% growth. The protocol:
as §1

Assay [3] relates to Micrococcus luteus ATCC 9341. As to conditions: ATCC9341, 48 hours at 37° C., ≦20% growth. Here is the method: as §1
Assay [4] concerns Klebsiella pneumoniae ATCC 4352. Conditions: ATCC4352, 48 hours at 37° C., ≦20% growth. The protocol:
as §1

The test system of assay [5] is Candida albicans ATCC 10259. Conditions: ATCC10259, 48 hours at 37° C., ≦20% growth. The protocol:
as §1

Assay [6] concerns Trichophyton mentagrophytes ATCC 9533. As to conditions: ATCC9533, 48 hours at 37° C., ≦20% growth. Here is the method: as §1
Assay [7] relates to S. epidermidis ATCC 12228. Conditions: Staphylococcus epidermidis, ATCC12228, 48 hours at 37° C., ≦20% growth. The protocol:
as §1

In assay [8] the test system is Enterococcus hirae ATCC 10541. As to conditions: ATCC10541, 48 hours at 37° C., ≦20% growth. The protocol:
as §1

The subject of assay [9] is Trichophyton rubrum DSM 4167. As to conditions: DSM4167, 48 hours at 37° C., ≦20% growth. Here is the method: as §1
Assay [10] has as its system Trichoderma longibrachiatum DSM 768. Conditions: DSM768, 48 hours at 37° C., ≦20% growth. Here is the method: as §1
In assay [11] the test system is P. ovale ATCC 14521. Conditions: Pityrosporum ovale, ATCC14521, 48 hours at 37° C., ≦20% growth. Here is the method: as §1
In assay [12] the test system is Corynebacterium xerosis ATCC 373. As to conditions: ATCC373, 48 hours at 37° C., ≦20% growth. Here is the method: as §1
Assay [13] relates to Epidermophyton floccosum DSM 10709. Conditions: DSM10709, 48 hours at 37° C., ≦20% growth. The protocol:
as §1

On to `CCCCCCCC[N+](CC)(CC)CCCNC(=O)CCc1cc(-n2nc3ccccc3n2)c(O)c(C(C)(C)C)c1.[Br-]` [compound of formula (108)], for which the MIC was 3.12 µg/mL in [1]; over 100 µg/mL in assay [2]; 3.12 µg/mL in assay [3]; over 100 µg/mL in assay [4]; 6.25 µg/mL in [5]; 100 µg/mL in assay [6]. The MIC is 3.12 µg/mL in assay [7]; 3.12 µg/mL in assay [8]; 25 µg/mL in assay [9]; 50 µg/mL in assay [10]; over 25 µg/mL in assay [11]; 3.12 µg/mL in assay [12]. The same compound had an MIC in [13] of 12.5 µg/mL.
